Where two headings read alike, the source gives them in different places. Marks after values point to notes of the source that are not given here.
Assays:
[1] = after thirty minutes, cited from earlier work
66 cl.4-GFP cells [2] = experiment: Fluorescent lung micrometastases of 66 cl.4-GFP tumors in Balb/c mice; format: in vivo
Description: (§1) Metastastic lesions in the five lung lobes were counted visually at time of sacrifice. Fluorescent green micro-metastatic cancer cell colonies in the left lung lobe and lymph nodes were counted using a Nikon fluorescence microscope (TE-200) with a 20 x objective (200 x magnification) and Image-Pro Plus (version 4.1; Media Cybernetics, Silver Spring, MD) software associated with the microscope. Fluorescent lesions were separated into three size grouping: <5 µm , 5-10 µm and >10 µm.
(§2) At sacrifice, the left lung lobe of each mouse of flash frozen and saves for detection of GFP expressing micrometatstic lesions via fluorescent microscopy.

66 cl.4-GFP cells [3] = experiment: Fluorescent lymph node micrometastases of 66 cl.4-GFP tumors in Balb/c mice; format: in vivo
Description: as §1, §2

66 cl.4-GFP cells [4] = experiment: Tumor growth of 66 cl.4-GFP mammary tumor cells implanted in Balb/c mice; conditions: for tumor growth, determined by tumor volume, versus controls: liposomal preparations delivered by aerosol, 36 µg per animal per day; for reduced tumor growth: liposome aerosol, 36 µg compound per day
Experimental: 66 cl.4-GFP cells were harvested by trypsinization, centrifuged, resuspended in McCoy's media, containing no supplements at a density of 2 X 10^5/100µl. Mice were injected in the inguinal area at a point equal distance between the 4th and 5th nipples on the right side using a 23 gauge needle.
50 mice were assigned (10 per group) to aerosol treatment, aerosol control, oral treatment, oral control, or to the no treatment group so that the average tumor volume for all groups were closely matched. […] Tumors were measured using calipers every other day, and volumes were calculated using the formula: volume (mm^3) = [width (mm)^2 X length (mm)] /2. Body weights were determined weekly.
Balb/c mice were injected with 200,000 66 cl.4 GFP cells subcutaneous in the mammary fat pad area between the 4th and 5th nipple on the right side of the body.
Mice are injected with 200,000 66cl.4 GFP murine mammary tumor cells as described on day 0. Treatments are initiated on day 9 when tumors reached 1-3 mm in size. […] Data represent the mean +/- Standard Error (SE), N = 10 mice for control and treatment groups.
Balb/c mice were injected s. c. with 2 X 10^5 66 cl.4-GFP cells in the inguinal area between the 4th and 5th nipple on the right side of the body. When tumors reached 2 x 2-4 x 4 mm (9 days after tumor injection), mice were placed into 5 groups ((Group 1: untreated control, Group 2: liposome/aerosol control, Group 3: liposomal α-TEA aerosol treatment, Group 4: peanut oil/gavage control, Group 5: α-TEA in peanut oil/gavage treatment) of 10 mice/group) such that the mean tumor volume of each group was closely matched. Daily treatments were initiated on day 9 after tumor injection.
Balb/c mice were injected with 200,000 66 cl.4 GFP cells subcutaneous in the mammary fat pad area between the 4th and 5th nipple on the right side of the body. […] Animals were treated with α-TEA in liposome, vitamin E succinate in liposome, or control liposome alone via aerosol, 7 days per week, for 21 days. Animals were given 75 mg compound via nebulization per day such that each animal received 36 µg compound per day.
The size of the tumors, 9 - 21 days after injection of 200,000 66 cl.4 GFP cells between the 4th and 5th nipple on the right side of each mouse, is determined. Treatments are initiated on day 9 after tumor inoculation. Each group consists of n=10 +/- SE. Gavage Treatment = Treatments of 5 mg of α-TEA in ethanol and peanut oil (0.1 ml volume) are administered daily starting on day 9 after tumor inoculation and continuing through day 21. Gavage Control = Mice received peanut oil and ethanol alone (0.ml volume)/daily, starting on day 9 after tumor inoculation and continuing through day 21. Data (tumor size) are depicted as the mean +/- standard error for days 9, 11, 13, 15, 17, 19, and 21.
Balb/c mice were injected with 200,000 66 cl.4 GFP cells subcutaneous in the mammary fat pad area between the 4th and 5th nipple on the right side of the body. […] Animals were treated with α-TEA in liposome, vitamin E succinate in liposome, or control liposome alone via oral gavage, 2 times per day, 7 days per week, for 21 days. Animals were given a total of 6 mg compound per day.

66 cl.4-GFP cells [5] = experiment: Visible lung metastases of 66 cl.4-GFP tumors in Balb/c mice; format: in vivo; set-up: Inhibition (%) of visible lung metastases: concentration or dose not given beside the values; conditions: liposomal formulations by aerosol; for Visible lung metastases/animal: 36 µg per animal per day, 19 or 21 days; for Inhibition (%) of visible lung metastases: versus control
Description: as §1

66 cl.4-GFP cells [6] = experiment: Apoptosis by morphological evaluation of DAPI-stained nuclei; format: cell-based, mouse; conditions: three days
CD31 = CD31 immunohistochemistry of tumor sections (tumor blood vessel numbers); format: in vivo, Balb/c mice; conditions: for % Reduction of CD31 Blood Vessel Nos/Area: liposomal formulation by aerosol, versus control
[7] = system: proliferation biomarker KI-67; experiment: KI-67 immunohistochemistry of tumor sections (cell proliferation); format: in vivo, Balb/c mice; conditions: for % Reduction of KI67: liposomal formulation by aerosol, versus control
66 cl.4-GFP tumors = experiment: TUNEL assay for apoptosis in tumor sections in vivo; set-up: species or system Balb/c mice; conditions: for % Enhanement of TUNEL Positive Apopotic Cells/Area: liposomal formulation by aerosol, versus control
Description: Deparaffinized sections (5 µm) of tumor tissue were used to assess apoptosis using reagents supplied in the ApopTag In Situ Apoptosis Detection kit (Intergen, Purchase, NY) according to the manufacturer's instructions. Nuclei that stained brown were scored as positive for apoptosis and those that stained blue were scored as negative. At least sixteen 400X microscopic fields were scored per tumor. Data are presented as the mean ± S. E number of apoptotic cells counted in three separate tumors from each group. Pictures of tumor tissue were taken at 1000X magnification.

MDA-MB-435 GFP FL cells = experiment: Tumor growth of MDA-MB-435 GFP FL breast cancer cells in nude mice; format: in vivo, Nu/Nu athymic nude mice; conditions: day 35; α-TEA in liposome via aerosol; MSC 3ppm in water by gavage
Experimental: Animals were given a total of 8 mg compound per day. […] Alpha-TEA liposome gavage reduced tumor growth by 68, 75, 78, 79 and 79% on days 27, 29, 31, 33, and 35, respectively (Fig. 15).
Animals were gavaged 3ppm methylselenocysteine (MSC) in water, α-TEA in liposome via aerosol, or gavaged 10 mg/kg b.w. trans-resveratrol (t-RES) in first 1:1, EtOH: physiological saline, and starting at day 24, 6.5% EtOH and 93.5% Neobee oil. A combination group was treated with each of the above three compounds, and a control group was treated with aerosolized liposome, 100 µl water, and 50 µl of the t-Res solvent. Animals were treated seven days a week, for 35+ days.

[8] = aerosol liposome delivery, 30 min
[9] = Aerosol, in nebulizer per mouse: α-TEA 5 mg/d, 9NC 2 µg/d, combination 5 mg+2µg/d
[10] = liposomal formulation delivered by aerosol, tumor sections

CC[C@@]1(O)C(=O)OCc2c1cc1n(c2=O)Cc2cc3c([N+](=O)[O-])cccc3nc2-1 [9-nitrocamptothecin]
Levels of 9-nitrocamptothecin in the brain [1, 8]: 61 ng/g
Levels of 9-nitrocamptothecin in the liver [1, 8]: 192 ng/g
Levels of 9-nitrocamptothecin in the lungs [1, 8]: 310 ng/g
Levels of 9-nitrocamptothecin in the liver ([1]; intramuscular delivery, 30 min): 136 ng/g
Levels of 9-nitrocamptothecin in the lungs ([1]; intramuscular delivery, 30 min): 2 to 4 ng/g
Levels of 9-nitrocamptothecin in the brain ([1]; intramuscular delivery): 0 ng/g
Inhibition (%) Metastases Lung (66 cl.4-GFP cells [2]; [9]): 55%
Inhibition (%) Metastases Lymphnode (66 cl.4-GFP cells [3]; [9]): 60%
Inhibition (%) Tumor Growth (66 cl.4-GFP cells [4]; [9]): 58%

Cc1c(C)c2c(c(C)c1O)CC[C@@](C)(CCC[C@H](C)CCC[C@H](C)CCCC(C)C)O2 [RRR-α tocopherol, RRR-α-tocopherol]
Visible lung metastases/animal (66 cl.4-GFP cells [5]): 1.7
Inhibition (%) of visible lung metastases (66 cl.4-GFP cells [5]): 0%
tumor growth, determined by tumor volume, versus controls (66 cl.4-GFP cells [4]): enhanced tumor growth

Cc1c(C)c2c(c(C)c1OC(=O)CCC(=O)O)CC[C@@](C)(CCC[C@H](C)CCC[C@H](C)CCCC(C)C)O2 [vitamin E succinate, RRR-α-tocopheryl succinate, reference compound]
apoptosis (66 cl.4-GFP cells [6]; 2.5 µg/ml): 3%
apoptosis (66 cl.4-GFP cells [6]; 5 µg/ml): 5%
apoptosis (66 cl.4-GFP cells [6]; 10 µg/ml): 16%
apoptosis (66 cl.4-GFP cells [6]; 20 µg/ml): 34%
effect on lung metastasis (66 cl.4-GFP cells [2]; liposomal formulation via gavage, 6 mg compound per day, 21 days): no effect on lung metastasis
effect on lymph node micrometastatic lesions (Fig. 14B) (66 cl.4-GFP cells [3]; liposome via gavage, 6 mg compound per day, 21 days): not effective in decreasing micrometastatic lung lesions
reduced tumor growth (66 cl.4-GFP cells [4]; 21 days, day 15): 76%
reduced tumor growth (66 cl.4-GFP cells [4]; 21 days, day 17): 76%
reduced tumor growth (66 cl.4-GFP cells [4]; 21 days, day 19): 69%
reduced tumor growth (66 cl.4-GFP cells [4]; 21 days, day 21): 68%
tumor growth versus control liposome (66 cl.4-GFP cells [4]; liposome gavage, 6 mg compound per day, 21 days): did not reduce tumor growth

Cc1c(C)c2c(c(C)c1O)CCC(C)(CCCC(C)CCCC(C)CCCC(C)C)O2 (racemic) [dl-α-tocopherol, dl-alpha-tocopherol]
Visible lung metastases/animal (66 cl.4-GFP cells [5]): 0.1
Inhibition (%) of visible lung metastases (66 cl.4-GFP cells [5]): 94** %
% Reduction of CD31 Blood Vessel Nos/Area (CD31): 51%
% Reduction of CD31 Blood Vessel Nos/Area (CD31; listed as dl-alpha-tocopherol): 51%
CD31 Blood Vessel Nos/Area (CD31; [10]): 112
% Reduction of KI67 [7]: 33%
% Reduction of KI67 ([7]; listed as dl-alpha-tocopherol): 33%
KI67 Inhibition of Proliferation (%) [7, 10]: 40%
% Enhanement of TUNEL Positive Apopotic Cells/Area (66 cl.4-GFP tumors): 44%
% Enhanement of TUNEL Positive Apopotic Cells/Area (66 cl.4-GFP tumors; listed as dl-alpha-tocopherol): 44%
TUNEL Positive Apopotic Cells/Area (66 cl.4-GFP tumors; [10]): 2.5

Cc1c(O)cc2c(c1C)O[C@](C)(CCC[C@H](C)CCC[C@H](C)CCCC(C)C)CC2 [RRR-γ tocopherol, RRR-γ-tocopherol]
Visible lung metastases/animal (66 cl.4-GFP cells [5]): 1.15
Inhibition (%) of visible lung metastases (66 cl.4-GFP cells [5]): 32%
tumor growth, determined by tumor volume, versus controls (66 cl.4-GFP cells [4]): enhanced tumor growth

Cc1cc(O)cc2c1O[C@](C)(CCC[C@H](C)CCC[C@H](C)CCCC(C)C)CC2 [RRR-delta tocopherol, RRR-delta-tocopherol]
Visible lung metastases/animal (66 cl.4-GFP cells [5]): 0.3
Inhibition (%) of visible lung metastases (66 cl.4-GFP cells [5]): 82%

C[Se]C[C@H](N)C(=O)O [MSC, methylselenocysteine, reference compound]
tumor volume decrease from the control (MDA-MB-435 GFP FL cells): 47.2%

CC(=O)Oc1c(C)c(C)c2c(c1C)CCC(C)(CCCC(C)CCCC(C)CCCC(C)C)O2 (racemic) [dl-α tocopherol acetate]
Visible lung metastases/animal (66 cl.4-GFP cells [5]): 0.3
Inhibition (%) of visible lung metastases (66 cl.4-GFP cells [5]): 82%

CC(C)=CCC/C(C)=C/CC/C(C)=C/CC[C@]1(C)CCc2c(C)c(O)c(C)c(C)c2O1 [RRR-α-tocotrienol, RRR-alpha-tocotrienol]
Visible lung metastases/animal (66 cl.4-GFP cells [5]): 0.4
Inhibition (%) of visible lung metastases (66 cl.4-GFP cells [5]): 77%

Source: patent EP1463487B1, “LIPOSOMAL DELIVERY OF VITAMIN E BASED COMPOUNDS” (RESEARCH DEVELOPMENT FOUNDATION, priority 2001, dated 2003)
